In US11578055B2, “Triazacyclododecansulfonamide (“TCD”)-based protein secretion inhibitors” (KEZAR LIFE SCIENCES, priority 2018, dated 2023):

Experiments:
[1] = In Vitro Microsome Stability Assay (human); type: in vitro ADME; settings: human liver microsomes, 30 min w/ NADPH
How it was run: (§1)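 Test article, added from a 0.25 mM DMSO stock, was incubated with liver microsomes (20 mg/mL stock) in 0.1 M potassium phosphate at 37° C, with the reaction started by NADPH. Samples were quenched with acetonitrile containing internal standard at 0 and 30 min and analysed by LC-MS/MS. Values are % remaining at 30 min versus 0 min, using IS-normalised AUC ratios.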

[2] = test system: full length TNFα (amino acids 1-233) fused to Gaussia Luciferase; test: Dox Induced TNFα-FL-Gluc Assay; type: cell-based; settings: 24 hr, Dox inducible, 293FRT/TO cells; read-out: 24 hr Dox Inducible TNFaFLGluc 293FRT/TO: Mean IC50
How it was run: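 Stable Flp-In 293 T-REx line expressing doxycycline-inducible full-length TNFα fused to Gaussia luciferase; cells plated the day before, then treated with compound dilutions in doxycycline-containing medium at 37° C, 5% CO2. Unspecified stereocentres mean stereoisomer mixtures were tested.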

[3] = test system: HER3 signal sequence plus 4 amino acids fused to Gaussia Luciferase (HER3-ss+4aa/Gaussia Luciferase); test: Dox Induced HER3-ss-Gluc Assay; type: cell-based; settings: 24 hr, doxycycline induced, Flp-In 293 T-REx cells; read-out: 24 hr Dox Inducible Her3(ss + 4) Gluc 293FRT/TO: Mean 1050
Excerpt: FIp-In 293 T-REx™ cells were transfected with pcDNA™5/FRT/TO plasmid inserted with cDNA encoding Gaussia Luciferase fused to the 3′ end of cDNA encoding HER3 signal sequence plus 4 amino acids (N-[…]-C) (SEQ ID NO: 2). Transfected cells were selected for resistance to the selectable markers Hygromycin and Blasticidin to create a stable cell line that contained the HER3-ss+4aa/Gaussia Luciferase cDNA insert whose expression was regulated under the T-REx™ system. The day before assay, cells were trypsinized and plated in 384-well tissue culture plates. The next day, compound dilutions in DMSO/media containing doxycycline were added to the wells and incubated at 37° C., 5% CO2.
For chemical structures that include one or more stereoisomers, but are illustrated without indicating stereochemistry, the assay data refers to a mixture of stereoisomers.

[4] = test system: multiple myeloma cell line U266B1; test: U266 Cell Viability Assay; type: cell-based, human; settings: Homo sapiens, U-266; 48 hr, U266, Celltiter-Glo
How it was run: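 U266B1 myeloma cells in RPMI 1640 with 10% FBS were treated with compound dilutions for 48 h at 37° C, 5% CO2. Viability was read as CellTiter-Glo luminescence. Data for structures drawn without stereochemistry refer to stereoisomer mixtures.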

[5] = test system: PD1 signal sequence plus 10 amino acids fused to Gaussia Luciferase (PD1-ss+10aa/Gaussia Luciferase); test: Dox Induced PD1-ss-Gluc Assay; type: cell-based; settings: 24 hr, Dox inducible, 293FRT/TO cells; read-out: 24 hr Dox Inducible PD1ssGluc 293FRT/TO: Mean IC50
How it was run: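 Stable Flp-In 293 T-REx line expressing the fusion under tetracycline-inducible control, plated the day before assay. Compound dilutions added with doxycycline and incubated at 37 °C, 5% CO2; unspecified stereocentres mean data refer to stereoisomer mixtures.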

[6] = In Vitro Microsome Stability Assay (mouse); type: in vitro ADME; settings: mouse liver microsomes, 30 min w/ NADPH
How it was run: as §1

[7] = In Vitro Microsome Stability Assay (rat); type: in vitro ADME; settings: rat liver microsomes, 30 min w/ NADPH
How it was run: as §1

[8] = In Vitro Microsome Stability Assay (monkey); type: in vitro ADME; settings: monkey liver microsomes, 30 min w/ NADPH
How it was run: as §1

[9] = test system: full length IL-2 (amino acids 1-153) fused to Gaussia Luciferase; test: Dox Induced IL2-FL-Gluc Assay; type: cell-based; settings: 24 hr, Dox inducible, 293FRT/TO cells; read-out: 24 hr Dox Inducible IL2FLGluc 293FRT/TO: Mean IC50
How it was run: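 Flp-In 293 T-REx stable line expressing full-length IL-2 (aa 1-153) with C-terminal Gaussia luciferase fusion under doxycycline-inducible control. Cells plated the day before; compound dilutions added in DMSO/media containing doxycycline, incubated at 37° C, 5% CO2.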

[10] = test system: multiple myeloma cell line NCl-H929; test: H929 Cell Viability Assay; type: cell-based, human; settings: Homo sapiens, NCI-H929, 48 h, H929, Celltiter-Glo
How it was run: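 NCI-H929 myeloma cells in RPMI 1640 with 10% FBS were treated with compound dilutions for 48 h at 37 °C, and viability was then read by CellTiter-Glo luminescence. Compounds drawn without stereochemistry were tested as stereoisomer mixtures.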

Liver Microsome Stability-% Left after 30 min w/ NADPH (%) Human [1]	IC50 [2]	IC50 [3]	EC50 [4]	IC50 [5]	Liver Microsome Stability-% Left after 30 min w/ NADPH (%) Mouse [6]	Liver Microsome Stability-% Left after 30 min w/ NADPH (%) Rat [7]	Liver Microsome Stability-% Left after 30 min w/ NADPH (%) Monkey [8]	IC50 [9]	EC50 [10]	Structure (SMILES)
0.04%	3250 nM	400 nM	> 25 µM	270 nM	0.5%	0.18%	0.26%	72.6 nM	11.3 µM	C[C@H]1CN(S(=O)(=O)c2ccc(C(=O)N(C)C)cc2)CCCN(CC2CCCCC2)CCCN(S(=O)(=O)N2CCc3cc(Cl)ccc3C2)C1 [A179, 4-{[(3S)-5-[(6-chloro-1,2,3,4-tetrahydroisoquinolin-2-yl)sulfonyl]-9-(cyclohexylmethyl)-3-methyl-1,5,9-triazacyclododecan-1-yl]sulfonyl}-N,N-dimethylbenzamide]
34.2%	748 nM	50.9 nM	> 25 µM	23.8 nM	10.1%	11.3%	7.72%	81.8 nM	6.81 µM	COc1cc(F)ccc1N1CCN(S(=O)(=O)N2CCCN(CC3CCCCC3)CCCN(S(=O)(=O)c3ccc(N(C)C)cc3)CC3(CC3)C2)CC1 [A193]
23.3%	> 25000 nM	428 nM	> 25 µM	343 nM	51.8%	68.9%	37.5%	616 nM	> 25 µM	COc1ccc([C@@H]2CCCN(S(=O)(=O)N3CCCN(CC4CCCCC4)CCCN(S(=O)(=O)c4ccc(N(C)C)cc4)C[C@H](C)C3)C2)cc1 [A208, 4-{[(3S)-9-(cyclohexylmethyl)-5-{[(3S)-3-(4-methoxyphenyl)piperidin-1-yl]sulfonyl]-3-methyl-1,5,9-triazacyclododecan-1-yl]sulfonyl}-N,N-dimethylaniline]
48.6%	1100 nM	117 nM	> 25 µM	57.6 nM	55.3%	65.0%	68.3%	145 nM	6.73 µM	C[C@H]1CN(S(=O)(=O)c2ccc(N(C)C)cc2)CCCN([C@H](C)C2CCCCC2)CCCN(S(=O)(=O)N2CCc3cc(Cl)ccc3C2)C1 [A191, 4-{[(3S)-5-[(6-chloro-1,2,3,4-tetrahydroisoquinolin-2-yl)sulfonyl]-9-[(1 R)-1-cyclohexylethyl]-3-methyl-1,5,9-triazacyclododecan-1-yl]sulfonyl}-N,N-dimethylaniline]
83.4%	434 nM	34.1 nM	> 25 µM	14.8 nM	80.3%	78.7%	77.9%	30.4 nM	0.396 µM	COc1cc(F)ccc1N1CCN(S(=O)(=O)N2CCCN([C@@H](C)C3CCCCC3)CCCN(S(=O)(=O)c3ccc(N(C)C)cc3)C[C@H](C)C2)CC1 [A203]
0.38%	885 nM	111 nM	> 25 µM	51.9 nM	36.4%	0.17%	0.15%	135 nM	2.42 µM	C[C@H]1CN(S(=O)(=O)c2ccc(N(C)C)cc2)CCCN(CCC2CC2)CCCN(S(=O)(=O)N2CCc3cc(Cl)ccc3C2)C1 [A122, 4-{[(3S)-5-[(6-chloro-1,2,3,4-tetrahydroisoquinolin-2-yl)sulfonyl]-9-(2-cyclopropylethyl)-3-methyl-1,5,9-triazacyclododecan-1-yl]sulfonyl}-N,N-dimethylaniline]
22.6%	> 25000 nM	498 nM	> 25 µM	327 nM	31.8%	44.7%	45.7%	673 nM	> 25 µM	COc1cccc([C@@H]2CCCN(S(=O)(=O)N3CCCN(CC4CCCCC4)CCCN(S(=O)(=O)c4ccc(N(C)C)cc4)C[C@H](C)C3)C2)c1 [A209]
74.1%	295 nM	35.6 nM	> 25 µM	16.2 nM	69.3%	85.3%	71.6%	45.7 nM	0.867 µM	C[C@H]1CN(S(=O)(=O)c2ccc(N(C)C)cc2)CCCN([C@@H](C)C2CCCCC2)CCCN(S(=O)(=O)N2CCc3cc(Cl)ccc3C2)C1 [A190, 4-{[(3S)-5-[(6-chloro-1,2,3,4-tetrahydroisoquinolin-2-yl)sulfonyl]-9-[(1 S)-1-cyclohexylethyl]-3-methyl-1,5,9-triazacyclododecan-1-yl]sulfonyl}-N,N-dimethylaniline]
2.56%	1080 nM	156 nM	> 25 µM	100 nM	5.64%	7.47%	1.23%	233 nM	6.92 µM	C[C@H]1CN(S(=O)(=O)c2ccc(N(C)C)cc2)CCCN(CC2CCCCC2)CCCN(S(=O)(=O)N(C)Cc2ccccc2)C1 [A184, (3S)-N-benzyl-9-(cyclohexylmethyl)-5-[4-(dimethylamino)benzenesulfonyl]-N,3-dimethyl-1,5,9-triazacyclododecane-1-sulfonamide]
63.6%	> 25000 nM	303 nM	> 25 µM	261 nM	68.5%	59.2%	65.0%	402 nM	> 25 µM	COc1cc(F)cc(N2CCN(S(=O)(=O)N3CCCN(CC4CCCCC4)CCCN(S(=O)(=O)c4ccc(N(C)C)cc4)C[C@H](C)C3)C[C@@H]2C)c1 [A194]
83.9%	609 nM	44.2 nM	> 25 µM	26.1 nM	16.1%	19.3%	25.0%	73 nM	1.18 µM	C[C@H]1CN(S(=O)(=O)c2ccc(N(C)C)cc2)CCCN(CC(C)(C)C)CCCN(S(=O)(=O)N2CCc3cc(Cl)ccc3C2)C1 [A107, 4-{[(3S)-5-[(6-chloro-1,2,3,4-tetrahydroisoquinolin-2-yl)sulfonyl]-9-(2,2-dimethylpropyl)-3-methyl-1,5,9-triazacyclododecan-1-yl]sulfonyl}-N,N-dimethylaniline]
